Laboratory results taken from patent US10775388B2, “Methods of using antibodies to determine periostin levels in a sample” (MEDIMMUNE, LLC, priority 2014, dated 2020).
“And” between values parts separate entries of the source, which are not always exact repeats. Equal values may be shown once.

Assays:
[1] = test system: patients with uncontrolled asthma; conditions: above-median vs below-median baseline serum periostin; cited from earlier work
[2] = test system: adults with uncontrolled, severe asthma; assay: Phase 2b study CD-RI-CAT-354-1049 of SC tralokinumab, subgroup analysis by baseline serum periostin; assay type: in vivo, human; conditions: for Asthma exacerbation rate reduction: 300 mg Q2W vs placebo
Procedure: A 5-week screening/run-in period (Week −5 to −1 [Day −1]) preceded randomisation. Starting at Week −4 (Day −28), patients received a fixed-dose combination product of fluticasone/salmeterol, either as an MDI (230 μg/21 μg) at a dose of 2 inhalations twice per day or as a DPI (500 μg/50 μg) at a dose of one inhalation twice per day. If the patient was also taking additional asthma controller medications (including leukotriene modifiers, theophylline, cromones, a secondary ICS, or oral prednisolone 20 mg/day or equivalent OCS), then these medications were to be continued at a stable dose during the screening/run-in and treatment period.
Patients were randomised in a 1:1 ratio to one of 2 cohorts (Cohort 1 or Cohort 2).

[3] = test system: EPIAIRWAY™ tissue (normal and asthmatic lung epithelium); assay: Periostin levels in IL-13 stimulated […] tissue models (sandwich ELISA); assay type: cell-based, human; conditions: stimulated with 50 ng/mL IL-13 for 48 hours
Procedure: Biotin/streptavidin-HRP-based sandwich ELISA assays were performed as follows. Specific details such as anti-periostin capture antibodies, samples to be tested, and anti-periostin detection antibodies are noted for specific experiments in the various examples Variations to standard ELISA protocols are well known to those of ordinary skill in the art, and can be used according to this disclosure.
High binding ELISA plates were coated with an anti-periostin capture mAb, e.g., 4B4.B11 (2 μg/mL in PBS; 100 μL/well), and were incubated overnight at 4° C. The plates were washed three times with 200 μL/well wash buffer (PBS/0.1% TWEEN-20®). Following washing, 200 μL/well block buffer (e.g., PBS/50× dilution of reagent diluent concentrate (available from R & D Systems)/0.05% TWEEN-20® or PBS/3% nonfat dry milk/0.1% TWEEN-20®) was added to each well, and the plates were incubated for one hour at room temperature. The plates were then washed three times as noted above.
For the standard curve, periostin standards (e.g., standards available from R & D Systems Cat #3548-F2) were serially diluted in block buffer, e.g., 2-fold dilutions from 50 ng/mL to 0.78 ng/mL. […] Finally the plates were read on a spectrophotometer at λ=450 nm. […]

[4] = post hoc, 300 mg Q2W, FEV1 reversibility ≥12% and serum periostin < median
[5] = post hoc, 300 mg Q2W, FEV1 reversibility ≥12% and serum periostin ≥ median
[6] = post hoc, reversible patients regardless of serum periostin level

## lebrikizumab: anti-human-IL-13 antibody (SEQ ID NOs 6-7), Roche/Genentech
[1]
  AER reduction: greater AER reduction
  increases in FEV1: larger increases

## tralokinumab: anti-IL-13 monoclonal antibody (SEQ ID NOs 8-9)
[2]; 300 mg Q2/4W, through to Week 53, periostin < median
  percent change from baseline in pre-bronchodilator FEV1 over time: No significant increases
[2]; Week 53, ITT (regardless of serum periostin level)
  Asthma exacerbation rate reduction: 7%
[2]; Week 53, baseline serum Periostin ≥ Median
  Asthma exacerbation rate reduction: 25%
[2]; 300 mg Q2W, ITT
  Change from baseline in ACQ-6: −0.18
  Change from baseline in AQLQ: 0.21
[2]; 300 mg Q2W, Periostin < Median
  Change from baseline in ACQ-6: −0.02
  Change from baseline in AQLQ: 0.21
[2]; 300 mg Q2W, Periostin ≥ Median
  Change from baseline in ACQ-6: −0.23
  Change from baseline in AQLQ: 0.22
[2]; 300 mg Q2W, Week 53, ITT (regardless of serum periostin level)
  Percent change from baseline in FEV1: 7.1%
[2]; 300 mg Q2W, Week 53, Periostin < Median
  Percent change from baseline in FEV1: 7.06%
[2]; 300 mg Q2W, Week 53, Periostin ≥ Median
  Percent change from baseline in FEV1: 6.75% and 6.8%
[2]; 300 mg Q2W, through to Week 53, periostin < median
  percent change from baseline in pre-bronchodilator FEV1 over time: No significant increases
[2]; 300 mg Q2W, through to Week 53, periostin >= median
  percent change from baseline in pre-bronchodilator FEV1 over time: Relative increases
[2]; baseline serum periostin above the median compared to below the median
  reduction in serum periostin levels: Greater reduction
[2]; [4]
  increase in FEV1: 7.62%
  reduction in AER: 4%
[2]; [5]
  percentage increase from baseline in pre-bronchodilator FEV1 compared to placebo: 13.85%
  reduction in AER: 54%
[2]; [6]
  AER reduction: 34%
  increase in FEV1: 11.07%
[2]; soon after the first dose and for the duration of the study
  serum periostin levels: substantially reduced

## IL-13: 114 amino acid cytokine used to stimulate periostin expression
[3]
  periostin levels: increase
